This note sets out measurements from patent US10729633B2, “Methods for boosting UVA photo-protection using antioxidants” (L'OREAL, priority 2018, dated 2020).

A short description of test [1]: In vivo PPD: UVPPD PF according to ISO 24442. The following applies: conclusion in words from PPD data of Examples 2 and 3. The protocol:
To characterize protection from UVA radiation, the PPD (Persistent Pigment Darkening) method, which measures the color of the skin observed 2 to 4 hours after exposure of the skin to UVA radiation, is used. This method was adopted in 1996 by the Japanese Cosmetic Industry Association (JCIA) as the official test procedure for the UVA labelling of products and is commonly used in industry, especially in Europe and the United States. See JAPAN COSMETIC […] ASSOCIATION TECHNICAL BULLETIN, Measurement Standards for UVA Protection Efficacy. Issued Nov. 21, 1995 and effective of Jan. 1, 1996), which is incorporated herein by reference in its entirety. […]
The degree of UVA protection provided by each of the formulations was determined in terms of UVPPD PF. […]
The UVPPD PF for each of sunscreen formulations A, B, and C was determined according to ISO 24442, which was adopted by the Japan Cosmetic Industry Association in 2012 for characterization of UVA protection and is incorporated herein by reference in its entirety. […] UVA radiation can be monitored continuously during exposure using a Model DCS-1 Sunburn UV Meter/Dose Controller System (Solar Light Co.), formerly known as the Robertson-Berger Sunburn meter (R-B meter). […] The MPPD of unprotected skin is determined under standardized lighting conditions 2 to 4 hours after exposures. […]

Test [2] is described as follows: Oxygen Radical Absorbance Capacity (ORAC) assay. The test is classed as biochemical. The following applies: in tubo, Trolox standard. As for the experimental part:
(§1) In tubo antioxidant testing was carried out to determine the antioxidant profile of antioxidants that boost UVA photo-protection.
The Oxygen Radical Absorbance Capacity (ORAC) assay is one of most commonly used methods to evaluate the capacity of antioxidants against ROS (reactive oxygen species), specific for peroxyl which is one of the most important free radicals present in the human skin environment. The ORAC assay measures the oxidative degradation of the fluorescent probe (fluorescein) after being mixed with free radical generators such as azo-initiator compounds (2,2′-Azobis(2-amidinopropane) dihydrochloride, AAPH). Azo-initiators produce the peroxyl radical by heating, which damages the fluorescent molecule, resulting in the loss of fluorescence. Antioxidants protect the fluorescent molecule from the oxidative degeneration. By quantifying the decay of fluorescence using a fluorometer, the degree of protection is determined comparing with a standard control antioxidant Trolox. The result is expressed in mol equivalent of Trolox per gram of sample (i.e., μmol TE/g). Equipment that can automatically measure and calculate the capacity is commercially available, such as the VarioSkan flash microplate reader from Thermo Scientific. To test samples for ORAC, compounds are dissolved into water-based NaH2PO4 buffer.

Test [3] is described as follows: Hydroxyl Radical Absorbance Capacity (HORAC) assay. In kind it is biochemical. Conditions: in tubo, Gallic Acid standard. The protocol: as §1
The HORAC assay is another common method to examine antioxidant activity. It is specific for hydroxyl radicals. The Varioskan Flash is employed for the quantification of the capacity of an antioxidant to avert the hydroxyl radical. The hydroxyl radical, generated from hydrogen peroxide and Cobalt (II) fluoride, will quench a fluorescent probe by a hydrogen atom transfer reaction. In the presence of an antioxidant, however, the molecule will chelate the Co(II), preventing the generation of the hydroxyl radical and initially block or prevent the quenching of the probe, causing a delay in the fluorescence decay profile. The area under the fluorescence decay curves for samples with and without the presence of an antioxidant molecule are compared to that of a standard reference material and the hydroxyl radical averting capacity is determined. By quantifying the decay of fluorescence using a fluorometer, the degree of protection is determined by comparison with a standard control antioxidant Gallic Acid (standard reference material). The result is expressed in μmol equivalent of Gallic Acid per gram of sample (i.e., μmol GAE/g). Equipment that can automatically measure and calculate the capacity is commercially available, such as the VarioSkan flash microplate reader from Thermo Scientific. To test samples by using HORAC, compounds are dissolved into water-based NaH2PO4 buffer.

Test [4] can be described thus: Superoxide Radical Absorbance Capacity (SORAC) assay. In kind it is biochemical. Also noted: key: None: No detectable value. Conditions: in tubo, WST-1 probe. As for the experimental part: as §1
The Superoxide Radical Absorbance Capacity (SORAC) assay is an in tubo method to determine the relative capacity of an antioxidant to dismutate the superoxide anion. The Varioskan Flash is employed to measure the superoxide dismutase-catalyzed dismutation of the superoxide anion in the presence of the absorbance probe, water-soluble tetrazolium salt (WST-1). WST-Formazan is produced when WST-1 is […] by superoxide anion that is generated by the mixture of xanthine and xanthine oxidase. One unit of SOD activity is defined as the quantity of antioxidant to obtain 50% inhibition of the rate of reduction of WST-1. The final SORAC value is expressed as one unit of SOD activity per milligram of dry weight of antioxidant material at 50% inhibition (Unit/mg).

Consider `O=C(O)[C@H]1O[C@@H](Oc2cc3oc(-c4ccccc4)cc(=O)c3c(O)c2O)[C@H](O)[C@@H](O)[C@@H]1O` [Baicalin, reference compound], for which the “boosting effect on UVA photo-protection” value in test [1] is “did not boost UVA photo-protection”. Besides, in test [2], the ORAC-peroxyl result is reported as “Medium (4500-10000)”. Besides, the HORAC-hydroxyl entry in test [3] was “Weak (<2600)”. In addition, the SORAC-superoxide result in test [4] is “Medium (200-1000)”.

Take `COc1cc(/C=C/C(=O)O)ccc1O` [Ferulic acid]: the ORAC-peroxyl entry in test [2] is reported as “Strong (>10000)”. Moreover, in test [3], the HORAC-hydroxyl entry was “Strong (>10000)”. Further, the SORAC-superoxide entry in test [4] is recorded as “Weak (<200)”.

As for `O=C(CCc1ccc(O)cc1)c1c(O)cc(O)cc1O` [Phloretin], the ORAC-peroxyl entry in test [2] was “Strong (>10000)”. For the same molecule, the HORAC-hydroxyl result in test [3] was “Medium (2600-10000)”. Moreover, in test [4], the SORAC-superoxide entry was “None”.

Turning to `OC[C@H]1O[C@@H](Oc2cc(O)cc(/C=C/c3ccc(O)cc3)c2)[C@H](O)[C@@H](O)[C@@H]1O` [Polydatin], the ORAC-peroxyl result in test [2] is on record as “Strong (>10000)”. In test [3], the HORAC-hydroxyl result is “Strong (>10000)”. Besides, the SORAC-superoxide entry in test [4] is “None”.
